Drawing on PubChem BioAssay AID248 (DTP/NCI, 2004), this text covers T/C for 18 compounds.

The subject of this assay is L1210 leukemia ip in BDF1 mice, survival T/C. Nature of the assay: NCI In Vivo Anticancer Drug Screen. Data for tumor model L1210 Leukemia (intraperitoneal) in B6D2F1 (BDF1) mice. The note with it: endpoint: mean survival time, higher = longer survival. The method in brief:
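Ratio derived from survival: compound-dosed mice over vehicle-dosed mice, all bearing a transplantable tumor.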

Where [1] appears, read: dose: 100.0 mg/kg/injection, schedule: Q01DX009 (ip), vehicle: saline.
The mark [2] stands for this setting: dose: 12.5 mg/kg/injection, schedule: Q04DX003 (ip), vehicle: saline.
The mark [3] stands for this setting: dose: 100.0 mg/kg/injection, schedule: Q01DX001 (ip), vehicle: saline.
The mark [4] stands for this setting: dose: 200.0 mg/kg/injection, schedule: Q01DX001 (ip), vehicle: saline.
The mark [5] stands for this setting: dose: 400.0 mg/kg/injection, schedule: Q01DX001 (ip), vehicle: saline.
Where [6] appears, read: dose: 100.0 mg/kg/injection, schedule: Q04DX003 (ip), vehicle: saline with Tween-80.
The mark [7] stands for this setting: dose: 200.0 mg/kg/injection, schedule: Q04DX003 (ip), vehicle: saline with Tween-80.
Where [8] appears, read: dose: 200.0 mg/kg/injection, schedule: Q01DX009 (ip), vehicle: saline.
Setting [9] is: dose: 400.0 mg/kg/injection, schedule: Q01DX009 (ip), vehicle: saline.

Molecules are shown by their SMILES. “And” between values parts separate entries of the source, which are not always exact repeats. Equal entries are not always repeated. Toxic doses and inconclusive results are not listed.

`C1C[N+]2(CCO1)CC[N+]1(CCOCC1)CC2`: the T/C reads like this: (dose: 100.0 mg/kg/injection, schedule: Q04DX002 (ip), vehicle: saline) 104 % of control; (dose: 200.0 mg/kg/injection, schedule: Q04DX002 (ip), vehicle: saline) 96 % of control; (dose: 400.0 mg/kg/injection, schedule: Q04DX002 (ip), vehicle: saline) 100 % of control.

For `Nc1ccn(C2OC(CO)C(O)C2OP(=O)(O)OCC2OC(n3ccc(=O)[nH]c3=O)CC2O)c(=O)n1` (stereo not given), the T/C runs as follows: (dose: 50.0 mg/kg/injection, schedule: Q01DX009 (ip), vehicle: saline) 153 % of control; under setting [1], 166 % of control.

Consider `CCN(CC)CCCCNc1ccc(NCCCCN(CC)CC)c2c1C(=O)c1ccccc1C2=O`, for which the T/C by setting is: (dose: 25.0 mg/kg/injection, schedule: Q04DX002 (ip), vehicle: alcohol) 106 % of control; (dose: 50.0 mg/kg/injection, schedule: Q04DX002 (ip), vehicle: alcohol) 95 % of control; (dose: 100.0 mg/kg/injection, schedule: Q04DX002 (ip), vehicle: alcohol) 92 % of control.

Consider `CC(C)(C)C(=O)C=C(C(F)(F)F)C(F)(F)F`, for which the T/C by setting is: (dose: 6.25 mg/kg/injection, schedule: Q01DX009 (ip), vehicle: saline) 106 % of control; (dose: 6.25 mg/kg/injection, schedule: Q04DX003 (ip), vehicle: saline) 100 % of control; (dose: 12.5 mg/kg/injection, schedule: Q01DX009 (ip), vehicle: saline) 106 % of control; under setting [2], 97 % of control; (dose: 25.0 mg/kg/injection, schedule: Q01DX009 (ip), vehicle: saline) 108 % of control; (dose: 25.0 mg/kg/injection, schedule: Q04DX003 (ip), vehicle: saline) 105 % of control. Also, the T/C (dose: 50.0 mg/kg/injection, schedule: Q04DX003 (ip), vehicle: saline) was 96 % of control and 105 % of control.

Regarding `Cc1c(C(C)(C)c2ccccc2)n(C)c2ccc(C(C)(C)c3ccccc3)cc12`, the T/C runs as follows: (dose: 50.0 mg/kg/injection, schedule: Q01DX001 (ip), vehicle: other) 91 % of control; (dose: 100.0 mg/kg/injection, schedule: Q01DX001 (ip), vehicle: other) 91 % of control; (dose: 200.0 mg/kg/injection, schedule: Q01DX001 (ip), vehicle: other) 96 % of control; (dose: 400.0 mg/kg/injection, schedule: Q01DX001 (ip), vehicle: other) 93 % of control.

As to `OCC1OC(n2cnc3cncnc32)CC1O` (stereo not given), the T/C is 103 % of control under setting [3], 97 % of control under setting [4] and 107 % of control under setting [5].

In the case of `CCCCN(CCCC)CCCCO`, the T/C reads like this: (dose: 50.0 mg/kg/injection, schedule: Q01DX009 (ip), vehicle: saline with Tween-80) 116 % of control; (dose: 100.0 mg/kg/injection, schedule: Q01DX009 (ip), vehicle: saline with Tween-80) 101 % of control; under setting [6], 102 % of control; (dose: 200.0 mg/kg/injection, schedule: Q01DX009 (ip), vehicle: saline with Tween-80) 101 % of control; under setting [7], 96 % of control.

With `CC12CCC(C(=O)CC1=O)C2(C)C` (stereo not given), the T/C is, setting by setting: under setting [1], 100 % of control; under setting [8], 104 % of control; under setting [9], 96 % of control.

Take `O=C(C[P+](c1ccccc1)(c1ccccc1)c1ccccc1)c1ccc([N+](=O)[O-])cc1`: the T/C by setting is: under setting [3], 105 % of control; under setting [4], 105 % of control; under setting [5], 100 % of control.

In the case of `NS(=O)(=O)c1ccc(N=Nc2nc3[nH]cnc(=S)c3[nH]2)cc1`, the T/C was 116 % of control (dose: 8.0 mg/kg/injection, schedule: Q01DX009 (ip), vehicle: saline); 121 % of control (dose: 15.0 mg/kg/injection, schedule: Q01DX009 (ip), vehicle: saline); 115 % of control (dose: 62.5 mg/kg/injection, schedule: Q01DX015 (ip), vehicle: saline); 121 % of control (dose: 125.0 mg/kg/injection, schedule: Q01DX015 (ip), vehicle: saline); 104 % of control (dose: 250.0 mg/kg/injection, schedule: Q01DX009 (ip), vehicle: saline); 153 % of control (dose: 250.0 mg/kg/injection, schedule: Q01DX015 (ip), vehicle: saline).

For `O=[N+]([O-])c1ccc(Oc2c(Cl)cc(Cl)cc2Cl)c([N+](=O)[O-])c1`, the T/C is, setting by setting: (dose: 222.0 mg/kg/injection, schedule: Q01DX Z (ip), vehicle: methylcellulose (MC)) 103 % of control; (dose: 333.0 mg/kg/injection, schedule: Q01DX Z (ip), vehicle: methylcellulose (MC)) 105 % of control; (dose: 500.0 mg/kg/injection, schedule: Q01DX Z (ip), vehicle: methylcellulose (MC)) 101 % of control.

Take `C[CH2][Sn]([CH2]C)([CH2]C)[NH]S(=O)(=O)c1ccc(C)cc1`: the T/C reads like this: (dose: 3.12 mg/kg/injection, schedule: Q01DX009 (ip), vehicle: saline with Tween-80) 92 % of control; under setting [2], 106 % of control.

In the case of `O=C(N/N=C\c1ccc(Cl)cc1)C(O)C(O)C(O)C(O)CO` (stereo not given), the T/C was 100 % of control (dose: 100.0 mg/kg/injection, schedule: Q01DX009 (ip), vehicle: Klucel (hydroxypropylcellulose) (HPC)); 91 % of control (dose: 200.0 mg/kg/injection, schedule: Q01DX009 (ip), vehicle: Klucel (hydroxypropylcellulose) (HPC)); 89 % of control (dose: 400.0 mg/kg/injection, schedule: Q01DX009 (ip), vehicle: Klucel (hydroxypropylcellulose) (HPC)).

Take `Cc1cc(=O)[nH]c2c(O)cc([N+](=O)[O-])cc12`: the T/C reads like this: (dose: 50.0 mg/kg/injection, schedule: Q01DX001 (ip), vehicle: Klucel (hydroxypropylcellulose) (HPC)) 111 % of control; (dose: 100.0 mg/kg/injection, schedule: Q01DX001 (ip), vehicle: Klucel (hydroxypropylcellulose) (HPC)) 100 % of control; (dose: 200.0 mg/kg/injection, schedule: Q01DX001 (ip), vehicle: Klucel (hydroxypropylcellulose) (HPC)) 97 % of control.

In the case of `O=C1c2ccccc2C2NCCCN12` (stereo not given), the T/C under setting [1] was 102 % of control, the T/C under setting [8] was 100 % of control and the T/C under setting [9] is 96 % of control.

`CCCNCC1OC(OC)C2OC(C)(C)OC12` (stereo not given): the T/C (dose: 0.78 mg/kg/injection, schedule: Q01DX009 (ip), vehicle: saline) was 100 % of control; the T/C (dose: 1.56 mg/kg/injection, schedule: Q01DX009 (ip), vehicle: saline) is 96 % of control; the T/C (dose: 3.12 mg/kg/injection, schedule: Q01DX009 (ip), vehicle: saline) was 98 % of control; the T/C (dose: 100.0 mg/kg/injection, schedule: Q01DX005 (ip), vehicle: saline) was 99 % of control; the T/C under setting [1] is 88 % of control; the T/C (dose: 200.0 mg/kg/injection, schedule: Q01DX005 (ip), vehicle: saline) was 106 % of control. Besides, the T/C under setting [8] was 91 % of control.

Regarding `O=C(O)CC(C(=O)O)c1ccccc1` (stereo not given), the T/C by setting is: under setting [6], 88 % of control; under setting [7], 103 % of control; (dose: 400.0 mg/kg/injection, schedule: Q04DX003 (ip), vehicle: saline with Tween-80) 106 % of control.

As for `[N-]=[N+]=[N-]`, the T/C (dose: 10.0 mg/kg/injection, schedule: Q01DX001 (ip), vehicle: saline) is 100 % of control and the T/C (dose: 20.0 mg/kg/injection, schedule: Q01DX001 (ip), vehicle: saline) was 100 % of control.
